How the values were obtained:
male subjects [1] = assay: Subjective stress level reports under a lecture stressor, Example 1; format: in vivo, human; settings: scale 0-10, FIG. 1
Description: For experiments 0.083M of Hexadecanal (HEX) dissolved in propylene glycol was used. Heating it for a few minutes eases the process (37° C. is sufficient). The mixture was aliquoted into daily portions, such that we thawed a daily serving prior to experiments. Participants were exposed to 100 ul of 0.083M HEX in 10 consecutive sniffs from a jar, and then taped a band aid with 30 ul on the upper lip. The band aid stayed to assure exposure throughout the experiment. Since propylene glycol has an odor, we used a masking odor.
• 30 male subjects, 15 using Olfactory Blue (OB—Hexadecanal) and 15 with placebo. […]
• Subjects—men only [mean age: 24.97 (SD=1.92)]. • An isolated office space (to avoid subject distraction) is prepared with a table and chair. • The computer, Modify standalone and the video recording are positioned and prepared. […] End of experiment • Experimenter debriefs subject—asks for general comments and feeling • Subjective stress level • End of test Measurements The following physiological measurements are recorded: 1. […] The following psychological/subjective measurements are recorded: 2. Memory test—the ability to remember a series of words seen one after the other and after conducting several simple mathematical tasks; scored by counting number of words correctly remembered. […] Subjective stress level—the stress level the subject feels at that moment; recorded on the computer. […]

male subjects [2] = assay: Memory test (free recall), Example 1; format: in vivo, human; settings: FIG. 3
Description: (§1) • 30 male subjects, 15 using Olfactory Blue (OB—Hexadecanal) and 15 with placebo. […] Equipment • Computer/laptop with test script and cognitive tests • HR wrist monitor and Central unit • Video camera • 2×50 ml identical bottles—one with OB (solvent+Hexadecanal) and one only with dipropylene glycol (DPG) Goals and KPIs.
• Subjects—men only [mean age: 24.97 (SD=1.92)]. • An isolated office space (to avoid subject distraction) is prepared with a table and chair. • The computer, Modify standalone and the video recording are positioned and prepared. […] End of experiment • Experimenter debriefs subject—asks for general comments and feeling • Subjective stress level • End of test Measurements The following physiological measurements are recorded: 1. […] The following psychological/subjective measurements are recorded: 2. Memory test—the ability to remember a series of words seen one after the other and after conducting several simple mathematical tasks; scored by counting number of words correctly remembered. […] Subjective stress level—the stress level the subject feels at that moment; recorded on the computer.

[3] = tested on: men and women participants; assay: Average heart rate (HR) along the experiment, Example 2; format: in vivo, human; settings: men and women together; FIG. 5, p<0.0001
Description: (§2) Sixty-four participants (35 women) with an average age of 27.34 (SD 4.65), half participated in the HEX group and the other half in the PLACEBO group. The study was conducted in Ra'anana, Israel in a rented office using a laptop computer.
(§3) Participants came in separately into the Ra'anana office, a research assistant (RA) welcomed them. After a short brief, participants were introduced with a bottle of liquid and were required to smell the bottle for 1 minute (with the instruction to breath normally). After being exposed to the smell, the RA explained about the three tasks (memory, attention, public speaking—the stressor). Participants reported their stress level before and after each assignment (7 times). Just before the last task, participants were informed that this task was canceled and then were asked to report their stress level for the last time.

[4] = tested on: men and women participants; assay: Subjective stress level reports, men and women, Example 2; format: in vivo, human; settings: two-way ANOVA, gender and fragrance condition; F(1,56)=5.1, p=0.03; no interaction; HEX vs PLACEBO; FIG. 4
Description: as §2, §3
The first stress report was given pre-manipulation; therefore, it may shed light upon the general stress level of the participants. Mean score for first stress report was 3.32 (SD 1.68) for men and 2.59 (SD 1.76) for women.
A two-way ANOVA was conducted with average stress (measures 2-6) as a dependent variable and gender and fragrance condition as the independent variables. […] Main effect for fragrance was also significant, F(1,56)=5.1, p=0.03. No interaction was found (F<0.1). […]

[5] = tested on: mouse OR37 receptor subtype B; settings: Klein et al [15]; cited from earlier work
[6] = tested on: men and women participants; assay: Attention test (Stroop test), Example 2; format: in vivo, human; settings: HEX vs placebo group
Description: as §2, §3

[7] = tested on: men and women participants; assay: Memory test (free recall), Example 2; format: in vivo, human; settings: HEX vs placebo group
Description: as §2, §3

male subjects [8] = assay: Stroop test (attention, cognitive performance), Example 1; format: in vivo, human; settings: FIG. 2
Description: as §1
• Subjects—men only [mean age: 24.97 (SD=1.92)]. • An isolated office space (to avoid subject distraction) is prepared with a table and chair. • The computer, Modify standalone and the video recording are positioned and prepared. Test Running • Subject is introduced and asked to take place in front of computer • Experimenter briefs the subject on the test procedure in general • Subject fills in a consent form (including GDPR consent) and signs the receipt for the money (see form in annex) • Subject fills in personal data on the computer • Experimenter presents the scent bottle (OB or Placebo) given to them by an assistant (who records which bottle has been given) to the subject to smell five sniffs within one minute (2% in the bottle). • Subject is asked about their subjective stress level on a scale between 0 (no stress at all) to 10 (extreme stress)—questionnaire on the computer • Experimenter completes the briefing and introduce 3 assignments to the participants: a memory task, a Stroop task and the stress manipulation—subject will have to give a 5 min lecture to an audience on one of three given topics—stressor. • Subject starts the experiment by following instructions on the computer: 1. […] End of experiment • Experimenter debriefs subject—asks for general comments and feeling • Subjective stress level • End of test Measurements The following physiological measurements are recorded: 1. […] The following psychological/subjective measurements are recorded: 2. Memory test—the ability to remember a series of words seen one after the other and after conducting several simple mathematical tasks; scored by counting number of words correctly remembered. […] Subjective stress level—the stress level the subject feels at that moment; recorded on the computer.

[9] = tested on: mouse OR37 receptor subtype C; settings: Klein et al [15]; cited from earlier work
[10] = tested on: mouse OR37 receptor subtype A; settings: Klein et al [15]; cited from earlier work

## CCCCCCCCCCCCCCCC=O [HEX, Hexadecanal]
Male subjects [1]; stress0 (baseline) and stress4 (end, after being told there will be no lecture)
  subjective stress report, difference between groups: no difference
Male subjects [1]; stress1, stress2, stress3 (after assignments and smelling, after memory test, after Stroop test), 15 vs 15 men, p<0.01
  subjective stress report vs Placebo group: significantly lower degree
Male subjects [2]
  free recall assignment, difference between conditions: no differences
[3]
  average HR vs placebo group: lower
[4]
  average stress (measures 2-6), main effect for fragrance: significant
[5]
  activation of OR37 subtype B: activated
[6]
  attention (Stroop test), difference between groups: did not differ
[7]
  memory (free recall), difference between groups: did not differ
Male subjects [8]
  Stroop test number of errors, blue vs placebo: No differences
  Stroop test reaction time, blue vs placebo: No differences
Male subjects [8]; as evidenced by the Stroop test
  cognitive performance relative to placebo: does not affect cognitive performance

## CCCCCCCCCCCCCCCCC=O [heptadecanal]
[9]
  activation of OR37 subtype C: activated

## CCCCCCCCCCCCCCC=O [pentadecanal]
[10]
  activation of OR37 subtype A: activated

— patent US12594248B2, “Stress management in human subjects in need thereof” (YEDA RESEARCH AND DEVELOPMENT CO. LTD., priority 2020, dated 2026)
